pEC50, pIC50: −log10 of the molar value.
Tests used:
Hepatitis C virus [1] = assay: Antiviral activity against Hepatitis C virus genotype 1b infected in HuH7 cells; type: functional, organism-based, Hepacivirus hominis; details: Huh-7
Hepatitis C virus [2] = assay: Antiviral activity against Hepatitis C virus genotype 1b expressing NS3/4A protease A156S mutant infected in HuH7 cells; type: functional, organism-based, Hepacivirus hominis; details: Huh-7
Hepatitis C virus [3] = assay: Antiviral activity against Hepatitis C virus genotype 1b expressing NS3/4A protease R155K mutant infected in HuH7 cells; type: functional, organism-based, Hepacivirus hominis; details: Huh-7
Hepatitis C virus [4] = assay: Antiviral activity against Hepatitis C virus genotype 1b expressing NS3/4A protease D168A mutant infected in HuH7 cells; details: Hepacivirus hominis, Huh-7
Hepatitis C virus [5] = assay: Antiviral activity against Hepatitis C virus genotype 1b expressing NS3/4A protease A156V mutant infected in HuH7 cells; type: functional, organism-based, Hepacivirus hominis; details: Huh-7
Hepatitis C virus [6] = assay: Antiviral activity against Hepatitis C virus genotype 1b expressing NS3/4A protease […] mutant infected in HuH7 cells; type: functional, organism-based, Hepacivirus hominis; details: Huh-7
Hepatitis C virus [7] = assay: Antiviral activity against Hepatitis C virus genotype 1a infected in HuH7 cells; type: functional, organism-based, Hepacivirus hominis; details: subtype 1a, Huh-7
[8] = Inhibition of Hepatitis C virus genotype 1a NS3/4A protease using Ac-DE-Dap(QXL520)-EE-Abu-psi-COO]-AS-C(5-FAMsp)-NH2 as substrate by FRET analysis; parameters: species or system Hepatitis C virus subtype 1a
Hepatitis C virus [9] = assay: Antiviral activity against Hepatitis C virus genotype 1b expressing NS3/4A protease A156T mutant infected in HuH7 cells; type: functional, organism-based, Hepacivirus hominis; details: Huh-7
Hepatitis C virus [10] = assay: Antiviral activity against Hepatitis C virus genotype 1b expressing wild type NS3/4A protease infected in HuH7 cells; type: functional, organism-based, Hepacivirus hominis; details: Huh-7
[11] = Oral bioavailability in rat; type: ADME, organism-based; details: in vivo
[12] = Apparent permeability of the compound at pH 7.05 by PAMPA assay; type: ADME
[13] = Clearance in rat; type: ADME, organism-based; details: in vivo

| Structure (SMILES) | pEC50 (Hepatitis C virus [1]) | pEC50 (Hepatitis C virus [2]) | pEC50 (Hepatitis C virus [3]) | pEC50 (Hepatitis C virus [4]) | pEC50 (Hepatitis C virus [5]) | pEC50 (Hepatitis C virus [6]) | pEC50 (Hepatitis C virus [7]) | pIC50 [8] | pEC50 (Hepatitis C virus [9]) | pEC50 (Hepatitis C virus [10]) | bioavailability [11] [%] | Papp [12] [×10⁻⁶ cm/s] | clearance [13] [mL/min/kg] |
| --- | --- | --- | --- | --- | --- | --- | --- | --- | --- | --- | --- | --- | --- |
| COc1ccc2c(O[C@@H]3C[C@H]4C(=O)N[C@]5(C(=O)NS(=O)(=O)C6CC6)C[C@H]5/C=C\CCCCCC(OC(=O)NC(C)(C)C)C(=O)N4C3)cc(-c3nc(C(C)C)cs3)nc2c1C (stereo not given in full) | 9.10 | 8.60 | 6.49 | 6.34 | 6.49 | 5.97 | 8.30 | 7.51 | 7.07 | 8.92 | – | – | – |
| CCOC1CCCCC/C=C\[C@@H]2C[C@@]2(C(=O)NS(=O)(=O)C2CC2)NC(=O)[C@@H]2C[C@@H](Oc3cc(-c4nc(C(C)C)cs4)nc4c(C)c(OC)ccc34)CN2C1=O (stereo not given in full) | 7.10 | 7.53 | 5.40 | 6.29 | 6.36 | 6.16 | 6.60 | 6.97 | 6.40 | 7.20 | – | – | – |
| COc1ccc2c(O[C@@H]3C[C@H]4C(=O)N[C@]5(C(=O)NS(=O)(=O)C6CC6)C[C@H]5/C=C\CCCCCC(OC(=O)OC(C)(C)C)C(=O)N4C3)cc(-c3nc(C(C)C)cs3)nc2c1C (stereo not given in full) | 7.40 | – | – | – | – | – | 7.30 | 6.71 | – | 7.20 | – | – | – |
| COc1ccc2c(O[C@@H]3C[C@H]4C(=O)N[C@]5(C(=O)NS(=O)(=O)C6CC6)C[C@H]5/C=C\CCCCCC(OC(=O)N5CCCCC5)C(=O)N4C3)cc(-c3nc(C(C)C)cs3)nc2c1C (stereo not given in full) | 8.49 | 8.01 | 5.83 | 5.67 | 6.18 | 5.40 | 8.00 | 7.25 | 7.04 | 8.15 | – | – | – |
| COc1ccc2c(O[C@@H]3C[C@H]4C(=O)N[C@]5(C(=O)NS(=O)(=O)C6CC6)C[C@H]5/C=C\CCCCCC(O)C(=O)N4C3)cc(-c3nc(C(C)C)cs3)nc2c1C (stereo not given in full) | 9.10 | 10.00 | 7.22 | 7.20 | 8.49 | 7.34 | 9.00 | 8.17 | 8.59 | 8.89 | – | – | – |
| COc1ccc2c(O[C@@H]3C[C@H]4C(=O)N[C@]5(C(=O)NS(=O)(=O)C6CC6)C[C@H]5/C=C\CCCCCC(OC(=O)n5ccnc5)C(=O)N4C3)cc(-c3nc(C(C)C)cs3)nc2c1C (stereo not given in full) | 9.30 | 10.00 | 7.32 | 7.15 | 8.41 | 6.82 | 9.10 | 8.49 | 8.55 | 9.30 | 12 | 1.2 | 53.7 |
| CC(C)(C)OC(=O)N[C@H]1CCCCC/C=C\[C@@H]2C[C@@]2(C(=O)NS(=O)(=O)C2CC2)NC(=O)[C@@H]2C[C@@H](OC(=O)N3Cc4cccc(F)c4C3)CN2C1=O [DANOPREVIR] | – | 8.80 | 7.09 | 7.31 | 8.08 | 7.61 | – | 9.40 | 8.17 | 10.00 | – | – | – |

From ChEMBL document CHEMBL2016556, “Discovery of novel P3-oxo inhibitor of hepatitis C virus NS3/4A serine protease” (Bioorg Med Chem Lett, 2012)
